Data published in patent publication US9346795B2, “Substituted sulfonamides useful as antiapoptotic Bcl inhibitors” (Bristol-Myers Squibb Company, priority 2011, dated 2016).

How the values were obtained:
Bcl-2 = Bcl-2 (Homo sapiens (Human), UniProt P10415); assay: Bcl-2/Bim Fluorescence Polarization Assay (FPA); format: binding
Bcl-xL = Bcl-xL (Homo sapiens (Human), UniProt Q07817); assay: Bcl-xL/Bim Fluorescence Resonance Energy Transfer Assay (FRET); format: binding
Outline: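 Biotin-Bcl-xL was incubated with Bim and compound at eleven concentrations for 60 min at room temperature. Streptavidin-terbium detection was then added for 30 min in the dark, and FRET was read. IC50 values were obtained by non-linear regression.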

Bcl-xL, sequence (Q07817 whole entry): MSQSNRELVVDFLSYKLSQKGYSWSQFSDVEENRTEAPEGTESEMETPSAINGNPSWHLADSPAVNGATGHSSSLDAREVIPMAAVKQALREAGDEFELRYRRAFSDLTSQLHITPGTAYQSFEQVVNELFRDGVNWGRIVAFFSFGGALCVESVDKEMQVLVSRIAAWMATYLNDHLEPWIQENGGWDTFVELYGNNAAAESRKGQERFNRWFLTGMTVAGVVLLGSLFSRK
Bcl-2, sequence (P10415 whole entry): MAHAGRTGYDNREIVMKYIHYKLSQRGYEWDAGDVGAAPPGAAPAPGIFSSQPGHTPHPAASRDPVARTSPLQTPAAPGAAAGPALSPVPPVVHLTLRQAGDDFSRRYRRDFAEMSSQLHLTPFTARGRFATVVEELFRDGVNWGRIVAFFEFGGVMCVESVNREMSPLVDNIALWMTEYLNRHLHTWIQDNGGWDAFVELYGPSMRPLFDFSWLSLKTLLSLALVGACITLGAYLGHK

| SMILES | IC50 (Bcl-2) [nM] | IC50 (Bcl-xL) [nM] |
| --- | --- | --- |
| CCCCN(C(=O)c1nn(-c2ccc(C(=O)NS(=O)(=O)c3ccc4c(Cl)ccc(Cl)c4c3)cc2C(=O)N2CCc3ccccc3C2)c(C)c1Cl)c1cccc(-c2ccc(Cl)cc2)c1 [Example 221, N-butyl-4-chloro-N-(4′-chlorobiphenyl-3-yl)-1-(4-(5,8-dichloronaphthalen-2-ylsulfonylcarbamoyl)-2-(1,2,3,4-tetrahydroisoquinoline-2-carbonyl)phenyl)-5-methyl-1H-pyrazole-3-carboxamide] | 40 | 40 |
| CCCCN(C(=O)c1nn(-c2ccc(C(=O)NS(=O)(=O)c3ccc4c(Cl)ccc(Cl)c4c3)cc2C(=O)N2CCc3ccccc3C2)c(C)c1Cl)c1cccc(-c2cccc(Cl)c2)c1 [Example 222, N-butyl-4-chloro-N-(3′-chlorobiphenyl-3-yl)-1-(4-(5,8-dichloronaphthalen-2-ylsulfonylcarbamoyl)-2-(1,2,3,4-tetrahydroisoquinoline-2-carbonyl)phenyl)-5-methyl-1H-pyrazole-3-carboxamide] | 70 | 40 |
| CCCCc1c(-c2ccc(C(=O)NS(=O)(=O)c3ccc4ccccc4c3)cc2C(=O)N2CCc3ccccc3C2)c(C(=O)OCC)nn1-c1ccc(Oc2ccccc2)cc1 [Example 228, Ethyl 5-butyl-4-(4-(naphthalen-2-ylsulfonylcarbamoyl)-2-(1,2,3,4-tetrahydroisoquinoline-2-carbonyl)phenyl)-1-(4-phenoxyphenyl)-1H-pyrazole-3-carboxylate] | 100 | 60 |
| CCCCc1c(-c2ccc(C(=O)NS(=O)(=O)c3ccc4ccccc4c3)cc2C(=O)N2CCc3ccccc3C2)c(C(=O)OCC)nn1-c1ccc(Oc2cccc(Cl)c2)cc1 [Example 230, Ethyl 5-butyl-1-(4-(3-chlorophenoxy)phenyl)-4-(4-(naphthalen-2-ylsulfonylcarbamoyl)-2(1,2,3,4-tetrahydroisoquinoline-2-carbonyl)phenyl)-1H-pyrazole-3-carboxylate] | 20 | 60 |
| CCCCc1c(-c2ccc(C(=O)NS(=O)(=O)CC[Si](C)(C)C)cc2C(=O)N2CCc3ccccc3C2)c(C(=O)OCC)nn1-c1ccccc1 [Example 239, Ethyl 5-butyl-1-phenyl-4-(2-(1,2,3,4-tetrahydroisoquinoline-2-carbonyl)-4-(2-(trimethylsilyl)ethylsulfonylcarbamoyl)phenyl)-1H-pyrazole-3-carboxylate] | 580 | 30 |
| CCCCc1c(-c2ccc(C(=O)NS(=O)(=O)c3ccc4ccccc4c3)cc2C(=O)N2CCc3ccccc3C2)c(CO)nn1-c1ccc(Oc2ccccc2)cc1 [Example 241, 4-(5-butyl-3-(hydroxymethyl)-1-(4-phenoxyphenyl)-1H-pyrazol-4-yl)-N-(naphthalen-2-ylsulfonyl)-3-(1,2,3,4-tetrahydroisoquinoline-2-carbonyl)benzamide] | 130 | 30 |
| CCCCc1c(-c2ccc(C(=O)NS(=O)(=O)c3ccc4ccccc4c3)cc2C(=O)N2CCc3ccccc3C2)c(CO)nn1-c1ccc(Oc2ccc(Cl)cc2)cc1 [Example 242, 4-(5-butyl-1-(4-(4-chlorophenoxy)phenyl)-3-(hydroxymethyl)-1H-pyrazol-4-yl)-N-(naphthalen-2-ylsulfonyl)-3-(1,2,3,4-tetrahydroisoquinoline-2-carbonyl)benzamide] | 20 | 40 |
| CCCCc1c(-c2ccc(C(=O)NS(=O)(=O)c3ccc4ccccc4c3)cc2C(=O)N2CCc3ccccc3C2)c(CO)nn1-c1ccc(Oc2cccc(Cl)c2)cc1 [Example 243, 4-(5-butyl-1-(4-(3-chlorophenoxy)phenyl)-3-(hydroxymethyl)-1H-pyrazol-4-yl)-N-(naphthalen-2-ylsulfonyl)-3-(1,2,3,4-tetrahydroisoquinoline-2-carbonyl)benzamide] | 7.83 | 20 |
| CCCCc1c(-c2ccc(C(=O)NS(=O)(=O)c3ccc4ccccc4c3)cc2C(=O)N2CCc3ccccc3C2)c(CO)nn1-c1ccc(CCO)cc1 [Example 245, 4-(5-butyl-1-(4-(2-hydroxyethyl)phenyl)-3-(hydroxymethyl)-1H-pyrazol-4-yl)-N-(naphthalen-2-ylsulfonyl)-3-(1,2,3,4-tetrahydroisoquinoline-2-carbonyl)benzamide] | 20 | 6.14 |
| CCCCc1c(-c2ccc(C(=O)NS(=O)(=O)c3ccc4c(Cl)ccc(Br)c4c3)cc2C(=O)N2CCc3ccccc3C2)c(C(=O)OCC)nn1-c1ccc(Oc2cccc(Cl)c2)cc1 [Example 251, ethyl 4-(4-(8-bromo-5-chloronaphthalen-2-ylsulfonylcarbamoyl)-2-(1,2,3,4-tetrahydroisoquinoline-2-carbonyl)phenyl)-5-butyl-1-(4-(3-chlorophenoxy)phenyl)-1H-pyrazole-3-carboxylate] | 20 | 50 |
| CCCCc1c(-c2ccc(C(=O)NS(=O)(=O)c3ccc4cccc(Cl)c4c3)cc2C(=O)N2CCc3ccccc3C2)c(CO)nn1-c1ccc(Oc2cccc(Cl)c2)cc1 [Example 252, 4-(5-butyl-1-(4-(3-chlorophenoxy)phenyl)-3-(hydroxymethyl)-1H-pyrazol-4-yl)-N-(8-chloronaphthalen-2-ylsulfonyl)-3-(1,2,3,4-tetrahydroisoquinoline-2-carbonyl)benzamide] | 6.37 | 10 |
| CCCCc1c(-c2ccc(C(=O)NS(=O)(=O)c3ccc4ccccc4c3)cc2C(=O)N2Cc3ccccc3C[C@H]2CO)c(CO)nn1-c1ccccc1 [Example 260, 4-(5-Butyl-3-(hydroxymethyl)-1-phenyl-1H-pyrazol-4-yl)-3-((S)-3-(hydroxymethyl)-1,2,3,4-tetrahydroisoquinoline-2-carbonyl)-N-(naphthalen-2-ylsulfonyl)benzamide] | 10 | 8.01 |
| CCCCN(CCCC)C(=O)c1cn(C)c(-c2ccc(C(=O)NS(=O)(=O)c3ccc4ccccc4c3)cc2C(=O)N2CCc3ccccc3C2)n1 [Example 264, N,N-Dibutyl-1-methyl-2-(4-(naphthalen-2-ylsulfonylcarbamoyl)-2-(1,2,3,4-tetrahydroisoquinoline-2-carbonyl)phenyl)-1H-imidazole-4-carboxamide] | 110 | 40 |
| CCCCN(CCCC)C(=O)c1cn(CC(=O)NC)c(-c2ccc(C(=O)NS(=O)(=O)c3ccc4ccccc4c3)cc2C(=O)N2CCc3ccccc3C2)n1 [Example 265, N,N-Dibutyl-1-(2-(methylamino)-2-oxoethyl)-2-(4-(naphthalen-2-ylsulfonylcarbamoyl)-2-(1,2,3,4-tetrahydroisoquinoline-2-carbonyl)phenyl)-1H-imidazole-4-carboxamide] | 430 | 70 |
| CCCCN(CCCC)C(=O)c1cn(CC(=O)O)c(-c2ccc(C(=O)NS(=O)(=O)c3cccc4ccccc34)cc2C(=O)N2CCc3ccccc3C2)n1 [Example 269, 2-(4-(Dibutylcarbamoyl)-2-(4-(naphthalen-1-ylsulfonylcarbamoyl)-2-(1,2,3,4-tetrahydroisoquinoline-2-carbonyl)phenyl)-1H-imidazol-1-yl)acetic acid] | 140 | 30 |
| CCCCN(CCCC)C(=O)c1cn(C)c(-c2ccc(C(=O)NS(=O)(=O)c3ccc4cccc(I)c4c3)cc2C(=O)N2Cc3ccccc3C[C@H]2CN)n1 [Example 282, 2-(2-((S)-3-(Aminomethyl)-1,2,3,4-tetrahydroisoquinoline-2-carbonyl)-4-(8-iodonaphthalen-2-ylsulfonylcarbamoyl)phenyl)-N,N-dibutyl-1-methyl-1H-imidazole-4-carboxamide] | 6.97 | 10 |
| CCCCN(CCCC)C(=O)c1cccc(-c2ccc(C(=O)NS(=O)(=O)c3ccc4ccccc4c3)cc2C(=O)N2CCc3ccccc3C2)n1 [Example 286, N,N-Dibutyl-6-(4-(naphthalen-2-ylsulfonylcarbamoyl)-2-(1,2,3,4-tetrahydroisoquinoline-2-carbonyl)phenyl)picolinamide] | 600 | 70 |
| CCCCN(CCCC)c1ccc(Br)c(-c2ccc(C(=O)NS(=O)(=O)c3ccc4cccc(Cl)c4c3)cc2C(=O)N2CCc3ccccc3C2)n1 [Example 289, 4-(3-Bromo-6-(dibutylamino)pyridin-2-yl)-N-(8-chloronaphthalen-2-ylsulfonyl)-3-(1,2,3,4-tetrahydroisoquinoline-2-carbonyl)benzamide] | 10 | 60 |
| CCCCN(CCCC)c1ncc(Cl)c(-c2ccc(C(=O)NS(=O)(=O)c3ccc4ccccc4c3)cc2C(=O)N2Cc3ccccc3C[C@H]2CO)n1 [Example 315, 4-(5-Chloro-2-(dibutylamino)pyrimidin-4-yl)-3-((S)-3-(hydroxymethyl)-1,2,3,4-tetrahydroisoquinoline-2-carbonyl)-N-(naphthalen-2-ylsulfonyl)benzamide] | 60 | 80 |
| CCCCN(Cc1ccc(Cl)c(Cl)c1)c1ncc(Cl)c(-c2ccc(C(=O)NS(=O)(=O)c3ccc4cccc(Cl)c4c3)cc2C(=O)N2CCc3ccccc3C2)n1 [Example 322, 4-(2-(Butyl (3,4-dichlorobenzyl)amino)-5-chloropyrimidin-4-yl)-N-(8-chloronaphthalen-2-ylsulfonyl)-3-(1,2,3,4-tetrahydroisoquinoline-2-carbonyl)benzamide] | 10 | 160 |
| CCCN(CCC)c1ncc(Cl)c(-c2ccc(C(=O)NS(=O)(=O)c3ccc4cccc(Cl)c4c3)cc2C(=O)N2Cc3ccccc3C[C@H]2CO)n1 [Example 328, 4-(5-Chloro-2-(dipropylamino)pyrimidin-4-yl)-N-(8-chloronaphthalen-2-ylsulfonyl)-3-((S)-3-(hydroxymethyl)-1,2,3,4-tetrahydroisoquinoline-2-carbonyl)benzamide] | 8.78 | 10 |
| CCCN(CCC)c1ncc(Cl)c(-c2ccc(C(=O)NS(=O)(=O)c3ccc4cccc(Cl)c4c3)cc2C(=O)N2Cc3ccccc3C[C@H]2CN)n1 [Example 329, 3-((S)-3-(Aminomethyl)-1,2,3,4-tetrahydroisoquinoline-2-carbonyl)-4-(5-chloro-2-(dipropylamino)pyrimidin-4-yl)-N-(8-chloronaphthalen-2-ylsulfonyl)benzamide] | 5.09 | 20 |
